Measured values taken from ChEMBL document CHEMBL1201862, “PubChem BioAssay data set” (2004).
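Interpolation was linear, between the two tested concentrations surrounding the appropriate level; five concentrations were tested over 48 hours in 96-well plates. At the GI50, growth is halved.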 Activity calls are given as the source filed them. Cut-off read from the data, not from the text of the source: active = GI50 up to about 1.1 µM and inactive = higher.

Columns and labels:
Assay in all cases: DTP human tumour cell line panel, 48 h
[1] = system: K562
[2] = system: SNB-75
[3] = system: HL-60
[4] = system: UACC-62
[5] = system: M14
[6] = system: SK-MEL-5
[7] = system: OVCAR-3
[8] = system: A549
[9] = system: NCI-H23
[10] = system: ACHN
[11] = system: PC-3
[12] = system: T47D
[13] = system: 786-0
[14] = system: CAKI-1
[15] = system: DU-145
[16] = system: HCT-15
[17] = system: SR
[18] = system: MOLT-4
[19] = system: SK-MEL-2
[20] = system: RXF 393
[21] = system: UACC-257
[22] = system: NCI-H522
[23] = system: UO-31
[24] = system: MDA-N
[25] = system: SN12C
[26] = system: MCF7
[27] = system: SK-OV-3
[28] = system: CCRF-CEM
[29] = system: IGROV-1
[30] = system: NCI-H226
[31] = system: SF-539
[32] = system: LOX IMVI
[33] = system: MDA-MB-435
[34] = system: EKVX
[35] = system: HOP-92
[36] = system: TK-10
[37] = system: HCT-116
[38] = system: NCI-H460
[39] = system: SNB-19
[40] = system: SW-620
[41] = system: SK-MEL-28
[42] = system: HCC 2998
[43] = system: KM12
[44] = system: HOP-62
[45] = system: OVCAR-8
[46] = system: RPMI-8226
[47] = system: COLO 205
[48] = system: U-251
[49] = system: NCI/ADR-RES
[50] = system: A498
[51] = system: OVCAR-4
[52] = system: BT-549
[53] = system: OVCAR-5
[54] = system: SF-268
[55] = system: HT-29
[56] = system: Hs-578T
[57] = system: MDA-MB-231
[58] = system: SF-295

Measured: GI50

O=C(O)CCc1nc2c(n1-c1ccccc1)C(=O)c1ccccc1C2=O
active: [35] 0.0226 µM
> 100 µM: [16]
inactive: [1] > 100 µM | [2] > 100 µM | [3] > 100 µM | [4] > 100 µM | [5] > 100 µM | [6] > 100 µM | [7] > 100 µM | [8] > 100 µM | [9] > 100 µM | [10] > 100 µM | [11] > 100 µM | [12] 64.7 µM | [13] > 100 µM | [14] > 100 µM | [15] > 100 µM | [17] > 100 µM | [18] > 100 µM | [19] 95.9 µM | [20] > 100 µM | [21] > 100 µM | [22] 38.5 µM | [23] > 100 µM | [24] > 100 µM | [25] > 100 µM | [26] 97.7 µM | [27] > 100 µM | [28] > 100 µM | [29] > 100 µM | [30] > 100 µM | [31] > 100 µM | [32] 70.5 µM | [33] 87.5 µM | [34] > 100 µM | [36] > 100 µM | [37] 50.2 µM | [38] > 100 µM | [39] > 100 µM | [40] > 100 µM | [41] > 100 µM | [42] > 100 µM | [43] > 100 µM | [44] > 100 µM | [45] > 100 µM | [46] > 100 µM | [47] > 100 µM | [48] > 100 µM | [49] > 100 µM | [50] > 100 µM | [51] > 100 µM | [52] > 100 µM | [53] > 100 µM | [54] > 100 µM | [55] > 100 µM | [56] > 100 µM | [57] > 100 µM | [58] > 100 µM

CCc1nc(N)nc(N)c1-c1ccc(N2CCOCC2)c(N=[N+]=[N-])c1
20.3 µM: [16]
inactive: [1] 8.79 µM | [2] > 92 µM | [3] > 28.2 µM | [4] 47 µM | [5] 54.3 µM | [6] 37.2 µM | [7] 77.6 µM | [8] 21.2 µM | [9] 37.2 µM | [10] 46 µM | [11] 42.6 µM | [12] > 92.7 µM | [13] 57.3 µM | [14] 62.2 µM | [15] > 82.8 µM | [17] 36.9 µM | [18] 64.3 µM | [19] > 100 µM | [20] > 83.2 µM | [21] > 100 µM | [22] 20.9 µM | [23] > 100 µM | [24] 57.1 µM | [25] > 80.5 µM | [26] 71.3 µM | [27] > 100 µM | [28] 53.8 µM | [29] 28.2 µM | [30] 98.2 µM | [31] 75.5 µM | [32] 38.7 µM | [33] 55.1 µM | [34] 66.7 µM | [35] 78.3 µM | [36] > 100 µM | [37] 18.4 µM | [38] 8.85 µM | [39] 38.3 µM | [40] 41.9 µM | [41] > 100 µM | [42] 47.9 µM | [43] 70.5 µM | [44] > 100 µM | [45] 61.7 µM | [46] > 89.5 µM | [47] 79.6 µM | [48] 67 µM | [49] > 100 µM | [50] > 92 µM | [51] 70.6 µM | [52] > 78.2 µM | [53] > 100 µM | [54] 44.7 µM | [55] 31.8 µM | [56] > 100 µM | [57] > 100 µM | [58] 63 µM
